Consider 22 molecules from patent US20260109712A1, “RIFAMYCINS FOR NONTUBERCULOUS MYCOBACTERIA” (priority 2022, published 2026).

The nature of data set [1]: Plasma protein binding assay (rapid equilibrium dialysis). The data set is classed as in vitro ADME. How it is done: DMSO stocks were spiked into plasma to a concentration of 10,000 ng/mL. 200 μL of spiked plasma was pipetted into the sample chamber of the rapid equilibrium dialysis (RED) cartridge. 350 μL of PBS was added to the adjacent cartridge. The plate containing the RED was sealed and incubated at 37° C. on the thermomixer at 300 RPM for 4 h. After incubation, 50 μL aliquots of plasma were removed and added to 50 μL of blank plasma in a deep well plate (1:1). Similarly, 50 μL aliquots of PBS were removed and added to 50 μL of blank plasma. This created an identical matrix between buffer and non-buffer samples. Samples were processed and quantified as specified in the LC-MS/MS analytical method.
For orientation: In equilibrium dialysis free small molecules cross a membrane that holds back macromolecules.

Data set [2] has as its system Δarr M. abscessus. In words: MIC assay, isogenic arr-deleted strain. Conditions: Table 10. The data set is classed as cell-based, Mycobacterium abscessus. How it is done:
(§1) MIC determination was carried out in 96-well plate format as previously described.^[13-14] 96-well plates were initially set up with 100 μL of 7H9 per well. For each compound, a ten-point two-fold dilution series starting at twice the desired highest concentration was dispensed onto the 96-well plates using a Tecan D300e Digital Dispenser, with the DMSO concentration normalized to 2%. M. abscessus culture grown to mid-log phase (OD600=0.4-0.6) was diluted to OD600=0.1 (1×10^7 CFU/mL). […] Untreated control wells are included on each plate that contain bacteria suspension and 1% DMSO. Plates were sealed with parafilm, stored in boxes with wet paper towels and incubated at 37° C. with shaking (110 RPM). Plates were incubated for 3 days. To determine growth, OD600 was measured using a Tecan Infinite M200 plate reader on Day 0 and Day 3. Two biological replicates were performed. Clarithromycin was included in each experiment as a positive control.
(§2) For each well on the 96-well plate, bacterial growth was calculated by subtracting the Day 0 OD600 value from the Day 3 OD600 value. […] For compound-containing wells, percentage growth was calculated by dividing their growth values by the average drug-free bacterial growth for the compound series and multiplying by 100. For each compound series, we plotted percentage growth versus compound concentration.

The subject of data set [3] is M. abscessus ATCC 19977. The experiment in a line: MIC assay in 96-well plate format, wild-type strain. Conditions: for MICWT: Table 10; for MIC: Table 15, heterocyclic aromatic carbamates, read-out: WT Mab MIC. Type of data set: cell-based, Mycobacterium abscessus. How it is done: as §1, §2

Each structure is given as a SMILES string. Values after ≈ are worked out from the molar mass of the structure shown.

As for `CO[C@H]1/C=C/O[C@@]2(C)Oc3c(C)c(O)c4c(c3C2=O)C2=NC3(CCN(CC(C)C)CC3)NC2=C(NC(=O)/C(C)=C/C=C/[C@H](C)[C@H](O)[C@@H](C)[C@@H](O)[C@@H](C)[C@H](OC(=O)c2ccccc2F)[C@@H]1C)C4=O` [UMN23], the plasma unbound fraction in data set [1] (Table 10) amounted to 0.05%. Moreover, the MICΔorr in data set [2] was 0.058 µM. The same molecule gave an MICWT in data set [3] of 0.06 µM.

Take `CO[C@H]1/C=C/O[C@@]2(C)Oc3c(C)c(O)c4c(c3C2=O)C2=NC3(CCN(CC(C)C)CC3)NC2=C(NC(=O)/C(C)=C/C=C/[C@H](C)[C@H](O)[C@@H](C)[C@@H](O)[C@@H](C)[C@H](OC(=O)c2ccccc2Cl)[C@@H]1C)C4=O` [UMN24]: the plasma unbound fraction in data set [1] (Table 10) was found to be 0.06%. The MICΔorr in data set [2] came out at 0.049 µM. This molecule had an MICWT in data set [3] of 0.043 µM.

For the molecule `COc1ccccc1C(=O)O[C@H]1[C@H](C)[C@H](O)[C@H](C)[C@@H](O)[C@@H](C)/C=C/C=C(\C)C(=O)NC2=C3NC4(CCN(CC(C)C)CC4)N=C3c3c(c(O)c(C)c4c3C(=O)[C@@](C)(O/C=C/[C@H](OC)[C@H]1C)O4)C2=O` [UMN29], the plasma unbound fraction in data set [1] (Table 10) is reported as 0.22%. Besides, in data set [2], the MICΔorr was 0.03 µM. Further, the MICWT in data set [3] is 0.03 µM.

In data set [1] (Table 10), `CO[C@H]1/C=C/O[C@@]2(C)Oc3c(C)c(O)c4c(c3C2=O)C2=NC3(CCN(CC(C)C)CC3)NC2=C(NC(=O)/C(C)=C/C=C/[C@H](C)[C@H](O)[C@@H](C)[C@@H](O)[C@@H](C)[C@H](OC(=O)Nc2cccc(C)c2)[C@@H]1C)C4=O` [UMN35] registered a plasma unbound fraction of 0.05%. Also, in data set [2], the MICΔorr was found to be 0.036 µM. For the same molecule, in data set [3], the MICWT was 0.034 µM.

One may read the MIC as the least concentration at which growth counts as inhibited. Molecule `CO[C@H]1/C=C/O[C@@]2(C)Oc3c(C)c(O)c4c(c3C2=O)C2=NC3(CCN(CC(C)C)CC3)NC2=C(NC(=O)/C(C)=C/C=C/[C@H](C)[C@H](O)[C@@H](C)[C@@H](O)[C@@H](C)[C@H](OC(=O)Nc2ccccc2-c2ccccc2)[C@@H]1C)C4=O` [UMN36] came in with a ƒu in data set [1] of 0.02%. The same molecule showed a plasma unbound fraction in data set [1] (plasma) of 0.02%. In data set [2], this molecule displayed an MICΔorr of 0.05 µM. Also, in data set [3], the MICWT was determined as 0.035 µM and the MIC is 0.035 µM (≈ 0.035 µg/mL).

Consider `COc1ccc(NC(=O)O[C@H]2[C@H](C)[C@H](O)[C@H](C)[C@@H](O)[C@@H](C)/C=C/C=C(\C)C(=O)NC3=C4NC5(CCN(CC(C)C)CC5)N=C4c4c(c(O)c(C)c5c4C(=O)[C@@](C)(O/C=C/[C@H](OC)[C@H]2C)O5)C3=O)cc1` [UMN37], for which the plasma unbound fraction in data set [1] (Table 10) was 0.15%. The molecule further showed an MICΔorr in data set [2] of 0.034 µM. The MICWT in data set [3] was 0.031 µM.

With `CO[C@H]1/C=C/O[C@@]2(C)Oc3c(C)c(O)c4c(c3C2=O)C2=NC3(CCN(CC(C)C)CC3)NC2=C(NC(=O)/C(C)=C/C=C/[C@H](C)[C@H](O)[C@@H](C)[C@@H](O)[C@@H](C)[C@H](OC(=O)Nc2ccc(-c3ccccc3)cc2)[C@@H]1C)C4=O` [UMN38], the MICΔorr in data set [2] was found to be 0.43 µM. Further, the MICWT in data set [3] came out at 0.2 µM.

In the case of `CO[C@H]1/C=C/O[C@@]2(C)Oc3c(C)c(O)c4c(c3C2=O)C2=NC3(CCN(CC(C)C)CC3)NC2=C(NC(=O)/C(C)=C/C=C/[C@H](C)[C@H](O)[C@@H](C)[C@@H](O)[C@@H](C)[C@H](OC(=O)Nc2ccccc2C)[C@@H]1C)C4=O` [UMN39], the ƒu in data set [1] is recorded as 0.1%. In data set [1] (plasma), this molecule came in with a plasma unbound fraction of 0.13%. In data set [2], this molecule showed an MICΔorr of 0.017 µM. Moreover, in data set [3], the MICWT was determined as 0.014 µM and the MIC was 0.014 µM (≈ 0.0131 µg/mL).

Turning to `CO[C@H]1/C=C/O[C@@]2(C)Oc3c(C)c(O)c4c(c3C2=O)C2=NC3(CCN(CC(C)C)CC3)NC2=C(NC(=O)/C(C)=C/C=C/[C@H](C)[C@H](O)[C@@H](C)[C@@H](O)[C@@H](C)[C@H](OC(=O)NCc2cc(-c3cccc(-c5ccccc5)c3)no2)[C@@H]1C)C4=O` [UMN41], in data set [2], the MICΔorr is 0.34 µM. In data set [3], this molecule registered an MICWT of 0.25 µM.

`CO[C@H]1/C=C/O[C@@]2(C)Oc3c(C)c(O)c4c(c3C2=O)C2=NC3(CCN(CC(C)C)CC3)NC2=C(NC(=O)/C(C)=C/C=C/[C@H](C)[C@H](O)[C@@H](C)[C@@H](O)[C@@H](C)[C@H](OC(=O)N2CCN(CC(F)(F)F)CC2)[C@@H]1C)C4=O` [UMN54] came in with an MICΔorr in data set [2] of 0.029 µM. In data set [3], this molecule gave an MICWT of 0.13 µM.

On to `CO[C@H]1/C=C/O[C@@]2(C)Oc3c(C)c(O)c4c(c3C2=O)C2=NC3(CCN(CC(C)C)CC3)NC2=C(NC(=O)/C(C)=C/C=C/[C@H](C)[C@H](O)[C@@H](C)[C@@H](O)[C@@H](C)[C@H](OC(=O)N2CCN(CCO)CC2)[C@@H]1C)C4=O` [UMN55], for which, in data set [2], the MICΔorr is 0.13 µM. This molecule also registered an MICWT in data set [3] of 0.28 µM.

In data set [2], `CO[C@H]1/C=C/O[C@@]2(C)Oc3c(C)c(O)c4c(c3C2=O)C2=NC3(CCN(CC(C)C)CC3)NC2=C(NC(=O)/C(C)=C/C=C/[C@H](C)[C@H](O)[C@@H](C)[C@@H](O)[C@@H](C)[C@H](OC(=O)Nc2nc(-c3ccccc3)cs2)[C@@H]1C)C4=O` [UMN57] registered an MICΔorr of 0.25 µM. The same molecule gave an MICWT in data set [3] of 0.15 µM.

`CO[C@H]1/C=C/O[C@@]2(C)Oc3c(C)c(O)c4c(c3C2=O)C2=NC3(CCN(CC(C)C)CC3)NC2=C(NC(=O)/C(C)=C/C=C/[C@H](C)[C@H](O)[C@@H](C)[C@@H](O)[C@@H](C)[C@H](OC(=O)N2Cc3ccccc3C2)[C@@H]1C)C4=O` [UMN65]: the MICΔorr in data set [2] amounted to 0.052 µM. This molecule displayed an MICWT in data set [3] of 0.11 µM.

Regarding `CO[C@H]1/C=C/O[C@@]2(C)Oc3c(C)c(O)c4c(c3C2=O)C2=NC3(CCN(CC(C)C)CC3)NC2=C(NC(=O)/C(C)=C/C=C/[C@H](C)[C@H](O)[C@@H](C)[C@@H](O)[C@@H](C)[C@H](OC(=O)N2CCN(C(C)C)CC2)[C@@H]1C)C4=O` [UMN66], the MICΔorr in data set [2] turned out to be 0.056 µM. Also, the MICWT in data set [3] was 0.17 µM.

On to `CO[C@H]1/C=C/O[C@@]2(C)Oc3c(C)c(O)c4c(c3C2=O)C2=NC3(CCN(CC(C)C)CC3)NC2=C(NC(=O)/C(C)=C/C=C/[C@H](C)[C@H](O)[C@@H](C)[C@@H](O)[C@@H](C)[C@H](OC(=O)N2CCC(N(C)C)CC2)[C@@H]1C)C4=O` [UMN74], for which, in data set [2], the MICΔorr was 0.13 µM. Besides, in data set [3], the MICWT was 0.12 µM.

Molecule `CO[C@H]1/C=C/O[C@@]2(C)Oc3c(C)c(O)c4c(c3C2=O)C2=NC3(CCN(CC(C)C)CC3)NC2=C(NC(=O)/C(C)=C/C=C/[C@H](C)[C@H](O)[C@@H](C)[C@@H](O)[C@@H](C)[C@H](OC(=O)N2CCC(C)(C)C2)[C@@H]1C)C4=O` [UMN75] showed an MICΔorr in data set [2] of 0.035 µM. The MICWT in data set [3] is 0.13 µM.

Molecule `CO[C@H]1/C=C/O[C@@]2(C)Oc3c(C)c(O)c4c(c3C2=O)C2=NC3(CCN(CC(C)C)CC3)NC2=C(NC(=O)/C(C)=C/C=C/[C@H](C)[C@H](O)[C@@H](C)[C@@H](O)[C@@H](C)[C@H](OC(=O)N2CCOCC2)[C@@H]1C)C4=O` [UMN78] showed an MICΔorr in data set [2] of 0.040 µM. Besides, in data set [3], the MICWT stood at 0.16 µM.

In turn, `CO[C@H]1/C=C/O[C@@]2(C)Oc3c(C)c(O)c4c(c3C2=O)C2=NC3(CCN(CC(C)C)CC3)NC2=C(NC(=O)/C(C)=C/C=C/[C@H](C)[C@H](O)[C@@H](C)[C@@H](O)[C@@H](C)[C@H](OC(=O)N2CCCC2)[C@@H]1C)C4=O` [UMN79] had an MICΔorr in data set [2] of 0.030 µM. The MICWT in data set [3] was found to be 0.18 µM.

On to `COC(=O)Cn1cc(CNC(=O)O[C@H]2[C@H](C)[C@H](O)[C@H](C)[C@@H](O)[C@@H](C)/C=C/C=C(\C)C(=O)NC3=C4NC5(CCN(CC(C)C)CC5)N=C4c4c(c(O)c(C)c5c4C(=O)[C@@](C)(O/C=C/[C@H](OC)[C@H]2C)O5)C3=O)nn1` [UMN84], for which, in data set [2], the MICΔorr came out at 0.15 µM. Further, the MICWT in data set [3] was 0.13 µM.

On to `CO[C@H]1/C=C/O[C@@]2(C)Oc3c(C)c(O)c4c(c3C2=O)C2=NC3(CCN(CC(C)C)CC3)NC2=C(NC(=O)/C(C)=C/C=C/[C@H](C)[C@H](O)[C@@H](C)[C@@H](O)[C@@H](C)[C@H](OC(=O)N2CCNCC2)[C@@H]1C)C4=O` [UMN86], for which the MICΔorr in data set [2] turned out to be 0.10 µM. For the same molecule, the MICWT in data set [3] worked out at 0.11 µM.

For `CO[C@H]1/C=C/O[C@@]2(C)Oc3c(C)c(O)c4c(c3C2=O)C2=NC3(CCN(CC(C)C)CC3)NC2=C(NC(=O)/C(C)=C/C=C/[C@H](C)[C@H](O)[C@@H](C)[C@@H](O)[C@@H](C)[C@H](OC(=O)NC2CC(C)(C)N(Cc3ccccc3)C(C)(C)C2)[C@@H]1C)C4=O` [UMN87], the MICΔorr in data set [2] was determined as 0.30 µM. In data set [3], this molecule gave an MICWT of 0.23 µM.

Consider `CO[C@H]1/C=C/O[C@@]2(C)Oc3c(C)c(O)c4c(c3C2=O)C2=NC3(CCN(CC(C)C)CC3)NC2=C(NC(=O)/C(C)=C/C=C/[C@H](C)[C@H](O)[C@@H](C)[C@@H](O)[C@@H](C)[C@H](OC(=O)NC2CC(C)(C)N(C)C(C)(C)C2)[C@@H]1C)C4=O` [UMN91], for which the MICΔorr in data set [2] is 0.10 µM. Further, the MICWT in data set [3] worked out at 0.11 µM.
